# Measurements: PubChem BioAssay AID1918994 (Molecular Pharmacology Branch, DTP, NCI, 2023)
# Tested on: 292921-168-R-J2-PDC complex spheroid growth
# Assay: Anticancer human tumor 292921-168-R-J2-PDC patient-derived pancreatic carcinoma cell line growth inhibition [AhR]
# Settings: for IC50: curve of first compound; for viability, T/C: stronger effect = lower value
# Source text: Multicellular complex tumor spheroid response to aryl hydrocarbon receptor antagonists in combination with a variety of drugs and investigational agents in selected tumor cell lines
# The current study was undertaken to assess response to aryl hydrocarbon receptor antagonists in combination with standard-of-care drugs and investigational agents in solid tumor complex spheroid models. Complex spheroids include a stromal component modeled by human endothelial cells (HUVEC) and fibroblasts modeled by human mesenchymal stem cells (MSCs). The concentration ranges selected for each drug and investigational agent were based upon clinically achievable concentrations if the clinical Cmax of the agent was known.
# Compounds. The drugs and investigational agents: BAY 2416964 (NSC825713), GNF351 (NSC835774), CH-223191 (NSC835775), CPI-455 (NSC825282), aza-TdCyd (NSC777586), decitabine (NSC127716), belinostat (NSC758774), entinostat (NSC756642), pevonedistat (NSC761192), tazemetostat (NSC777109), talazoparib (NSC765396), olaparib (NSC753686), selinexor (NSC780203), nedisertib (M3814, NSC802822), bortezomib (NSC756655), venetoclax (NSC766270), doxorubicin (NSC123127), elimusertib (BAY189344, NSC800525), ceralasertib (AZD6738, NSC777638), TAK-243 (NSC785004), alisertib (NSC759677), etoposide (NSC141540), topotecan (NSC609699), eribulin (NSC707389), gemcitabine (NSC613327), carboplatin (NSC241240), cisplatin (NSC119875), and SN-38 (NSC673596) were obtained from the National Cancer Institute (NCI) Developmental Therapeutics Program Chemical Repository (32). The FDA-approved anticancer drug set is available from the Developmental Therapeutics Program at https://dtp.cancer.gov/organization/dscb/obtaining/available plates.htm. […] The stock solutions were prepared in dimethyl sulfoxide (DMSO, Sigma-Aldrich, St. Louis, MO, cat. D2650), except for the platinum compounds which were prepared in saline (Quality Biological, Gaithersburg, MD, cat. 114-055-101), at 800-fold the tested concentration and stored at -70 degrees C prior to their use. All drugs and investigational agents were tested over a range starting from a high concentration at or near the clinical Cmax and decreasing in half-log increments. If the clinical Cmax for an agent had not been determined, the highest concentration tested was 10 microM (Table 1).
# Cell Culture. All cells were maintained in an incubator at 37 degrees C and 5% CO2 with 95% humidity. The PDC lines were cultured according to standard operating procedures established by the NCI PDMR (https://pdmr.cancer.gov). Briefly, all PDCs were thawed and cultured in Matrigel-coated flasks prepared with a working solution of 1X Ham's F-12 nutrient mix, without supplementation (Invitrogen, Waltham, MA, cat. 11765054), 100 U/mL penicillin-streptomycin (Invitrogen, cat. 15140122), and 2.5% Matrigel (Corning Inc., Corning, NY, cat. 354248) for the first three passages. All PDCs were cultured in complete DMEM/F-12 media containing advanced DMEM/F-12 (Invitrogen, cat. 12634028), 4.9% defined fetal bovine serum, heat inactivated (HyClone Laboratories Inc., Logan, UT, cat. SH30070.03HI), 389 ng/mL hydrocortisone (Sigma-Aldrich, cat. H4001), 9.7 ng/mL human EGF recombinant protein (Invitrogen, cat. PHG0313), 23.4 microg/mL adenine (Sigma-Aldrich, cat. A2786), 97.3 U/mL penicillin-streptomycin (Invitrogen, cat. 15140122), 1.9 mM L-glutamine (Invitrogen, cat. 25030081), and 9.7 microM Y-27632 dihydrochloride (Tocris Bioscience, Bristol, United Kingdom, cat. 1254). The PDCs were cultured in complete DMEM/F12 media without 10 microM Y-27632 dihydrochloride for at least two passages prior to the screen. The established cell lines NCI-H1341 and […] were cultured in DMEM/F-12, HEPES (Invitrogen, cat. 11330032), 5% defined fetal bovine serum (HyClone Laboratories Inc., cat. SH30070.03), ITS premix universal culture supplement [insulin (5 microg/mL), transferrin (5 microg/mL), and selenious acid (5 ng/mL)] […]
# [1] = second compound 0.1 µM, first compound 0.0316 µM
# [2] = second compound 0.1 µM, first compound 0.1 µM
# [3] = second compound 0.1 µM, first compound 0.316 µM
# [4] = second compound 0.1 µM, first compound 1 µM
# [5] = second compound 0.1 µM, first compound 3.16 µM
# [6] = second compound 0.1 µM, first compound 10 µM
# [7] = second compound 0.316 µM, first compound 0.0316 µM
# [8] = second compound 0.316 µM, first compound 0.1 µM
# [9] = second compound 0.316 µM, first compound 0.316 µM
# [10] = second compound 0.316 µM, first compound 1 µM
# [11] = second compound 0.316 µM, first compound 3.16 µM
# [12] = second compound 0.316 µM, first compound 10 µM
# [13] = second compound 1 µM, first compound 0.0316 µM
# [14] = second compound 1 µM, first compound 0.1 µM
# [15] = second compound 1 µM, first compound 0.316 µM
# [16] = second compound 1 µM, first compound 1 µM
# [17] = second compound 1 µM, first compound 3.16 µM
# [18] = second compound 1 µM, first compound 10 µM
# [19] = second compound 3.16 µM, first compound 0.0316 µM
# [20] = second compound 3.16 µM, first compound 0.1 µM
# [21] = second compound 3.16 µM, first compound 0.316 µM
# [22] = second compound 3.16 µM, first compound 1 µM
# [23] = second compound 3.16 µM, first compound 3.16 µM
# [24] = second compound 3.16 µM, first compound 10 µM
# [25] = second compound 10 µM, first compound 0.0316 µM
# [26] = second compound 10 µM, first compound 0.1 µM
# [27] = second compound 10 µM, first compound 0.316 µM
# [28] = second compound 10 µM, first compound 1 µM
# [29] = second compound 10 µM, first compound 3.16 µM
# [30] = second compound 10 µM, first compound 10 µM
# 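Further: spheroids exposed to compounds for seven days after three days of growth.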
structure (smiles),measurement,setting,value
CC(C)CC(NC(=O)C(Cc1ccccc1)NC(=O)c1cnccn1)B(O)O (stereo not given) + CC(CO)NC(=O)c1cc(-c2ccc(Cl)cc2)nn(-c2cnn(C)c2)c1=O,IC50,second compound 0.1 µM,6.1 nM
same,IC50,second compound 0.316 µM,5.42 nM
same,IC50,second compound 1 µM,6.01 nM
same,IC50,second compound 3.16 µM,5.29 nM
same,IC50,second compound 10 µM,4.43 nM
same,"viability, T/C","second compound 0.1 µM, first compound 0.000949 µM",105%
same,"viability, T/C","second compound 0.1 µM, first compound 0.003 µM",107%
same,"viability, T/C","second compound 0.1 µM, first compound 0.00949 µM",15.2%
same,"viability, T/C","second compound 0.1 µM, first compound 0.03 µM",2.8%
same,"viability, T/C","second compound 0.1 µM, first compound 0.0949 µM",1.2%
same,"viability, T/C","second compound 0.1 µM, first compound 0.3 µM",0.49%
same,"viability, T/C","second compound 0.316 µM, first compound 0.000949 µM",109%
same,"viability, T/C","second compound 0.316 µM, first compound 0.003 µM",90.4%
same,"viability, T/C","second compound 0.316 µM, first compound 0.00949 µM",11.8%
same,"viability, T/C","second compound 0.316 µM, first compound 0.03 µM",1.8%
same,"viability, T/C","second compound 0.316 µM, first compound 0.0949 µM",0.5%
same,"viability, T/C","second compound 0.316 µM, first compound 0.3 µM",0.59%
same,"viability, T/C","second compound 1 µM, first compound 0.000949 µM",101%
same,"viability, T/C","second compound 1 µM, first compound 0.003 µM",102%
same,"viability, T/C","second compound 1 µM, first compound 0.00949 µM",15.8%
same,"viability, T/C","second compound 1 µM, first compound 0.03 µM",2.98%
same,"viability, T/C","second compound 1 µM, first compound 0.0949 µM",1.25%
same,"viability, T/C","second compound 1 µM, first compound 0.3 µM",1.42%
same,"viability, T/C","second compound 3.16 µM, first compound 0.000949 µM",85.8%
same,"viability, T/C","second compound 3.16 µM, first compound 0.003 µM",85.6%
same,"viability, T/C","second compound 3.16 µM, first compound 0.00949 µM",13.2%
same,"viability, T/C","second compound 3.16 µM, first compound 0.03 µM",2.3%
same,"viability, T/C","second compound 3.16 µM, first compound 0.0949 µM",2.01%
same,"viability, T/C","second compound 3.16 µM, first compound 0.3 µM",1.89%
same,"viability, T/C","second compound 10 µM, first compound 0.000949 µM",77.6%
same,"viability, T/C","second compound 10 µM, first compound 0.003 µM",70%
same,"viability, T/C","second compound 10 µM, first compound 0.00949 µM",11%
same,"viability, T/C","second compound 10 µM, first compound 0.03 µM",1.4%
same,"viability, T/C","second compound 10 µM, first compound 0.0949 µM",2.28%
same,"viability, T/C","second compound 10 µM, first compound 0.3 µM",2.01%
Nc1ccccc1NC(=O)c1ccc(CNC(=O)OCc2cccnc2)cc1 + CC(CO)NC(=O)c1cc(-c2ccc(Cl)cc2)nn(-c2cnn(C)c2)c1=O,IC50,second compound 0.1 µM,190 nM
same,IC50,second compound 0.316 µM,148 nM
same,IC50,second compound 1 µM,195 nM
same,IC50,second compound 3.16 µM,116 nM
same,IC50,second compound 10 µM,< 31.6 nM
same,"viability, T/C",[1],67.5%
same,"viability, T/C",[2],58.8%
same,"viability, T/C",[3],43%
same,"viability, T/C",[4],31%
same,"viability, T/C",[5],25.5%
same,"viability, T/C",[6],9.72%
same,"viability, T/C",[7],69%
same,"viability, T/C",[8],51.2%
same,"viability, T/C",[9],44.3%
same,"viability, T/C",[10],28.1%
same,"viability, T/C",[11],23.7%
same,"viability, T/C",[12],10.4%
same,"viability, T/C",[13],66.6%
same,"viability, T/C",[14],60.7%
same,"viability, T/C",[15],43.4%
same,"viability, T/C",[16],25.4%
same,"viability, T/C",[17],23.7%
same,"viability, T/C",[18],9.21%
same,"viability, T/C",[19],60.8%
same,"viability, T/C",[20],51.1%
same,"viability, T/C",[21],43.3%
same,"viability, T/C",[22],23.1%
same,"viability, T/C",[23],22.7%
same,"viability, T/C",[24],8.28%
same,"viability, T/C",[25],45.9%
same,"viability, T/C",[26],40.5%
same,"viability, T/C",[27],32.9%
same,"viability, T/C",[28],19.4%
same,"viability, T/C",[29],18.1%
same,"viability, T/C",[30],5.12%
O=C(c1cc(Cc2n[nH]c(=O)c3ccccc23)ccc1F)N1CCN(C(=O)C2CC2)CC1 + CC(CO)NC(=O)c1cc(-c2ccc(Cl)cc2)nn(-c2cnn(C)c2)c1=O,IC50,second compound 0.1 µM,> 10000 nM
same,IC50,second compound 0.316 µM,> 10000 nM
same,IC50,second compound 1 µM,> 10000 nM
same,IC50,second compound 3.16 µM,> 10000 nM
same,IC50,second compound 10 µM,> 10000 nM
same,"viability, T/C",[1],100%
same,"viability, T/C",[2],96.1%
same,"viability, T/C",[3],92.4%
same,"viability, T/C",[4],98.8%
same,"viability, T/C",[5],78.4%
same,"viability, T/C",[6],64%
same,"viability, T/C",[7],97.4%
same,"viability, T/C",[8],98.4%
same,"viability, T/C",[9],99.4%
same,"viability, T/C",[10],90.1%
same,"viability, T/C",[11],74.3%
same,"viability, T/C",[12],66.7%
same,"viability, T/C",[13],90.3%
same,"viability, T/C",[14],103%
same,"viability, T/C",[15],94.7%
same,"viability, T/C",[16],90.2%
same,"viability, T/C",[17],78.2%
same,"viability, T/C",[18],66.2%
same,"viability, T/C",[19],85.9%
same,"viability, T/C",[20],86%
same,"viability, T/C",[21],81.8%
same,"viability, T/C",[22],83.7%
same,"viability, T/C",[23],70.8%
same,"viability, T/C",[24],55.9%
same,"viability, T/C",[25],67.5%
same,"viability, T/C",[26],62.8%
same,"viability, T/C",[27],67.1%
same,"viability, T/C",[28],63.4%
same,"viability, T/C",[29],56.6%
same,"viability, T/C",[30],49%
